# Results taken from patent US12227495B2, “Herbicidal compounds” (SYNGENTA CROP PROTECTION AG, priority 2018, dated 2025).
# What was measured:
# Format in all cases: in vivo
# Conditions in all cases: evaluated after 13 days
# Setaria faberi (SETFA) [1] = experiment: Post-emergence herbicide test, glasshouse, percentage damage
# Method: (§1) Seeds of a variety of test species are sown in standard soil in pots (Lolium perenne (LOLPE), Solanum nigrum (SOLNI), Amaranthus retoflexus (AMARE), Setaria faberi (SETFA), Echinochloa crus-galli (ECHCG), Ipomoea hederacea (IPOHE)). After cultivation for one day (pre-emergence) or after 8 days cultivation (post-emergence) under controlled conditions in a glasshouse (at 24/16° C., day/night; 14 hours light; 65% humidity), the plants are sprayed with an aqueous spray solution derived from the formulation of the technical active ingredient in acetone/water (50:50) solution containing 0.5% Tween 20 (polyoxyethelyene sorbitan monolaurate, CAS RN 9005-64-5). Compounds are applied at 500 g/ha unless otherwise stated. The test plants are then grown in a glasshouse under controlled conditions in a glasshouse (at 24/16° C., day/night; 14 hours light; 65% humidity) and watered twice daily. After 13 days for pre and post-emergence, the test is evaluated for the percentage damage caused to the plant. The biological activities are shown in the following table on a five point scale (5=81-100%; 4=61-80%; 3=41-60%; 2=21-40%; 1=0-20%).
# Lolium perenne (LOLPE) [2] = experiment: as above
# Method: as §1
# [3] = system: Echinochloa crus-galli (ECHCG); experiment: as above
# Method: as §1
# [4] = system: Amaranthus retoflexus (AMARE); experiment: as above
# Method: as §1
# [5] = system: Ipomoea hederacea (IPOHE); experiment: as above
# Method: as §1
# Solanum nigrum (SOLNI) [6] = experiment: as above
# Method: as §1
# Setaria faberi (SETFA) [7] = experiment: Pre-emergence herbicide test, glasshouse, percentage damage
# Method: as §1
# Lolium perenne (LOLPE) [8] = experiment: as above
# Method: as §1
# [9] = system: Echinochloa crus-galli (ECHCG); experiment: as above
# Method: as §1
# [10] = system: Amaranthus retoflexus (AMARE); experiment: as above
# Method: as §1
# [11] = system: Ipomoea hederacea (IPOHE); experiment: as above
# Method: as §1
# Solanum nigrum (SOLNI) [12] = experiment: as above
# Method: as §1
Compound,"percentage damage caused to the plant, SETFA (Setaria faberi (SETFA) [1]; 500 g/ha)","percentage damage caused to the plant, LOLPE (Lolium perenne (LOLPE) [2]; 500 g/ha)","percentage damage caused to the plant, ECHCG ([3]; 500 g/ha)","percentage damage caused to the plant, AMARE ([4]; 500 g/ha)","percentage damage caused to the plant, IPOHE ([5]; 500 g/ha)","percentage damage caused to the plant, SOLNI (Solanum nigrum (SOLNI) [6]; 500 g/ha)",Pre-emergence Test SETFA percentage damage (five point scale) (Setaria faberi (SETFA) [7]; rate 500 g/ha),Pre-emergence Test LOLPE percentage damage (five point scale) (Lolium perenne (LOLPE) [8]; rate 500 g/ha),"percentage damage caused to the plant, SETFA (Setaria faberi (SETFA) [1]; 1000 g/ha)","percentage damage caused to the plant, LOLPE (Lolium perenne (LOLPE) [2]; 1000 g/ha)","percentage damage caused to the plant, ECHCG ([3]; 1000 g/ha)","percentage damage caused to the plant, AMARE ([4]; 1000 g/ha)","percentage damage caused to the plant, IPOHE ([5]; 1000 g/ha)","percentage damage caused to the plant, SOLNI (Solanum nigrum (SOLNI) [6]; 1000 g/ha)",Pre-emergence Test SETFA percentage damage (five point scale) (Setaria faberi (SETFA) [7]; rate 1000 g/ha),Pre-emergence Test LOLPE percentage damage (five point scale) (Lolium perenne (LOLPE) [8]; rate 1000 g/ha),Pre-emergence Test ECHCG percentage damage (five point scale) ([9]; rate 1000 g/ha),Pre-emergence Test AMARE percentage damage (five point scale) ([10]; rate 1000 g/ha),Pre-emergence Test IPOHE percentage damage (five point scale) ([11]; rate 1000 g/ha),Pre-emergence Test SOLNI percentage damage (five point scale) (Solanum nigrum (SOLNI) [12]; rate 1000 g/ha),further results
Fc1cccc(Oc2cc(C(F)(F)F)ccn2)c1-c1cc(C(F)F)no1 [Compound A8],4 (4=61-80%),1 (1=0-20%),2 (2=21-40%),2 (2=21-40%),1 (1=0-20%),5 (5=81-100%),3 (3=41-60%),1 (1=0-20%),,,,,,,,,,,,,Pre-emergence Test ECHCG percentage damage (five point scale) ([9]; rate 500 g/ha): 2 (2=21-40%); Pre-emergence Test AMARE percentage damage (five point scale) ([10]; rate 500 g/ha): 5 (5=81-100%); Pre-emergence Test IPOHE percentage damage (five point scale) ([11]; rate 500 g/ha): 1 (1=0-20%); Pre-emergence Test SOLNI percentage damage (five point scale) (Solanum nigrum (SOLNI) [12]; rate 500 g/ha): 4 (4=61-80%)
Fc1cccc(Oc2ccc(Cl)cn2)c1-c1cc(C(F)F)no1 [Compound A9],5 (5=81-100%),5 (5=81-100%),5 (5=81-100%),5 (5=81-100%),4 (4=61-80%),5 (5=81-100%),5 (5=81-100%),4 (4=61-80%),,,,,,,,,,,,,Pre-emergence Test ECHCG percentage damage (five point scale) ([9]; rate 500 g/ha): 5 (5=81-100%); Pre-emergence Test AMARE percentage damage (five point scale) ([10]; rate 500 g/ha): 5 (5=81-100%); Pre-emergence Test IPOHE percentage damage (five point scale) ([11]; rate 500 g/ha): 3 (3=41-60%); Pre-emergence Test SOLNI percentage damage (five point scale) (Solanum nigrum (SOLNI) [12]; rate 500 g/ha): 5 (5=81-100%)
Fc1cnc(Oc2cccc(F)c2-c2cc(C(F)F)no2)c(F)c1 [Compound A10],5 (5=81-100%),5 (5=81-100%),5 (5=81-100%),5 (5=81-100%),5 (5=81-100%),5 (5=81-100%),5 (5=81-100%),5 (5=81-100%),,,,,,,,,,,,,Pre-emergence Test ECHCG percentage damage (five point scale) ([9]; rate 500 g/ha): 5 (5=81-100%); Pre-emergence Test AMARE percentage damage (five point scale) ([10]; rate 500 g/ha): 5 (5=81-100%); Pre-emergence Test IPOHE percentage damage (five point scale) ([11]; rate 500 g/ha): 5 (5=81-100%); Pre-emergence Test SOLNI percentage damage (five point scale) (Solanum nigrum (SOLNI) [12]; rate 500 g/ha): 5 (5=81-100%)
N#Cc1ccc(Oc2cccc(F)c2-c2cc(C(F)F)no2)nc1 [Compound A12],5 (5=81-100%),5 (5=81-100%),5 (5=81-100%),5 (5=81-100%),5 (5=81-100%),5 (5=81-100%),5 (5=81-100%),5 (5=81-100%),,,,,,,,,,,,,Pre-emergence Test ECHCG percentage damage (five point scale) ([9]; rate 500 g/ha): 5 (5=81-100%); Pre-emergence Test AMARE percentage damage (five point scale) ([10]; rate 500 g/ha): 5 (5=81-100%); Pre-emergence Test IPOHE percentage damage (five point scale) ([11]; rate 500 g/ha): 5 (5=81-100%); Pre-emergence Test SOLNI percentage damage (five point scale) (Solanum nigrum (SOLNI) [12]; rate 500 g/ha): 5 (5=81-100%)
"O=[N+]([O-])c1ccc(Oc2ccccc2-n2cc(C(F)(F)F)cn2)nc1 [Compound A14, 5-nitro-2-[2-[4-(trifluoromethyl)pyrazol-1-yl]phenoxy]pyridine]",,,,,,,,,5 (5=81-100%),5 (5=81-100%),5 (5=81-100%),5 (5=81-100%),4 (4=61-80%),5 (5=81-100%),5 (5=81-100%),5 (5=81-100%),5 (5=81-100%),5 (5=81-100%),3 (3=41-60%),5 (5=81-100%),
FC(F)(F)c1ccc(Oc2ccccc2-n2cc(C(F)(F)F)cn2)nc1 [Compound A15],,,,,,,,,3 (3=41-60%),1 (1=0-20%),2 (2=21-40%),1 (1=0-20%),2 (2=21-40%),4 (4=61-80%),5 (5=81-100%),3 (3=41-60%),5 (5=81-100%),5 (5=81-100%),1 (1=0-20%),4 (4=61-80%),
Fc1cc(Cl)cnc1Oc1ccccc1-n1cc(C(F)(F)F)cn1 [Compound A16],,,,,,,,,5 (5=81-100%),5 (5=81-100%),5 (5=81-100%),4 (4=61-80%),5 (5=81-100%),5 (5=81-100%),5 (5=81-100%),5 (5=81-100%),5 (5=81-100%),5 (5=81-100%),5 (5=81-100%),5 (5=81-100%),
FC(F)(F)c1cnn(-c2ccccc2Oc2ccc(Cl)cn2)c1 [Compound A17],,,,,,,,,5 (5=81-100%),5 (5=81-100%),5 (5=81-100%),5 (5=81-100%),5 (5=81-100%),5 (5=81-100%),5 (5=81-100%),5 (5=81-100%),5 (5=81-100%),5 (5=81-100%),5 (5=81-100%),5 (5=81-100%),
Fc1cnc(Oc2ccccc2-n2cc(C(F)(F)F)cn2)c(F)c1 [Compound A18],,,,,,,,,,,,,,,,,,,,,"percentage damage caused to the plant, SETFA (Setaria faberi (SETFA) [1]; 250 g/ha): 3 (3=41-60%); percentage damage caused to the plant, LOLPE (Lolium perenne (LOLPE) [2]; 250 g/ha): 2 (2=21-40%); percentage damage caused to the plant, ECHCG ([3]; 250 g/ha): 4 (4=61-80%); percentage damage caused to the plant, AMARE ([4]; 250 g/ha): 3 (3=41-60%); percentage damage caused to the plant, IPOHE ([5]; 250 g/ha): 2 (2=21-40%); percentage damage caused to the plant, SOLNI (Solanum nigrum (SOLNI) [6]; 250 g/ha): 3 (3=41-60%); Pre-emergence Test SETFA percentage damage (five point scale) (Setaria faberi (SETFA) [7]; rate 250 g/ha): 5 (5=81-100%); Pre-emergence Test LOLPE percentage damage (five point scale) (Lolium perenne (LOLPE) [8]; rate 250 g/ha): 1 (1=0-20%); Pre-emergence Test ECHCG percentage damage (five point scale) ([9]; rate 250 g/ha): 5 (5=81-100%); Pre-emergence Test AMARE percentage damage (five point scale) ([10]; rate 250 g/ha): 5 (5=81-100%); Pre-emergence Test IPOHE percentage damage (five point scale) ([11]; rate 250 g/ha): 1 (1=0-20%); Pre-emergence Test SOLNI percentage damage (five point scale) (Solanum nigrum (SOLNI) [12]; rate 250 g/ha): 5 (5=81-100%)"
N#Cc1ccc(Oc2ccccc2-n2cc(C(F)(F)F)cn2)nc1 [Compound A19],,,,,,,,,5 (5=81-100%),5 (5=81-100%),5 (5=81-100%),5 (5=81-100%),5 (5=81-100%),5 (5=81-100%),5 (5=81-100%),5 (5=81-100%),5 (5=81-100%),5 (5=81-100%),5 (5=81-100%),5 (5=81-100%),
Fc1cc(Br)cnc1Oc1cccc(F)c1-c1cc(C(F)F)no1 [Compound A20],,,,,,,,,4 (4=61-80%),4 (4=61-80%),4 (4=61-80%),5 (5=81-100%),5 (5=81-100%),5 (5=81-100%),5 (5=81-100%),5 (5=81-100%),5 (5=81-100%),4 (4=61-80%),3 (3=41-60%),3 (3=41-60%),
